# Measurements: US6608082B1, “Treatment of erectile dysfunction using isoquinoline compound melanocortin receptor ligands” (Lion Bioscience AG, priority 1998, dated 2003)
# Several values for one entry are separate records, joined by “and”; a condition that tells them apart may be missing. Identical values can stand only once.
# Experiments:
# TNF-α = test: Reduction of lipopolysaccharide-induced tumor necrosis factor levels in mice; type: in vivo, BALB/c female mice; details: for % TNF-α Inhibtion, IP 30: 30 μg per mouse; for % TNF-α Inhibtion, IP 30 / % TNF-α Inhibtion, IP 300 / % TNF-α Inhibtion, IP 100 / % TNF-α Inhibtion, Oral 300 / % TNF-α Inhibtion, Oral 600: plasma 90 or 105 minutes after LPS, mean ± SEM; for % TNF-α Inhibtion, IP 300 / % TNF-α Inhibtion, Oral 300: 300 μg per mouse; for % TNF-α Inhibtion, IP 100: 100 μg per mouse; for % TNF-α Inhibtion, Oral 600: 600 μg per mouse
# Protocol: BALB/c female mice weighing approximately 20 g were placed into a control group and a treated group. Five mg/kg of LPS in 0.9% saline was administered (100 μl to give 100 μg LPS per mouse) by intraperitoneal (IP) injection to all mice. Mice in the treatment group received either 30, 100, 300 or 600 μg of various isoquinoline compounds per mouse in a volume of 100 μl of PBS. Control mice received 100 μl of saline alone. One minute after initial injections all mice received the LPS injection. As a positive control, 100 μg of HP 228 was injected per mouse.
# Blood samples were collected from the orbital sinus of treated and control mice 90 minutes or 105 minutes after LPS administration. The plasma was separated by centrifugation at 3000×g for 5 min and stored at −20° C. Samples were thawed and diluted, if TNF-α concentration was greater than 3200 pg/ml, with PBS containing 1% bovine serum albumin, 10% donor horse serum, 1% normal mouse serum, 0.05% TWEEN-20 and 0.05% thimerosal. A 100 μl sample of plasma was assayed by ELISA for TNF-α. Briefly, ELISA plates were coated with hamster anti-mouse TNF-α antibody (Genzyme; Cambridge Mass.). Samples or known concentrations of TNF-α were added to the coated plates and incubated for 2 hr at 37° C. Plates were washed and subsequently incubated with biotinylated rabbit anti-mouse TNG-α for 1 hr at 37° C. Plates were washed and incubated with streptavidin-HRP for 1 hr at 37° C., and HRP activity was detected with hydrogen peroxide and o-phenylenediamine (OPD) using standard immunoassay procedures.
# The mean (±SEM) TNF-α level in five mice from each group was determined and the percent reduction in TNF-α levels was calculated.
# MCR-3 = target: T1, MCR-3 (Homo sapiens, UniProt P41968); test: Melanocortin receptor binding assay, competition with 125I-HP 467, HEK 293 cells expressing hMCR-3; details: binding to MCR-3, HEK 293 cells; read-out: MC-3 IC50
# T1 construct: expressed in transfected cells; host or cells: HEK 293
# Description: All cell culture media and reagents were obtained from GibcoBRL (Gaithersburg Md.), except for COSMIC CALF SERUM (HyClone; Logan Utah). HEK-293 cell lines were transfected with the human MC receptors hMCR-1, hMCR-3, and hMCR-4 (Gantz et al., Biochem. Biophys. Res. Comm. 200:1214-1220 (1994); Gantz et al., J. Biol. Chem. 268:8246-8250 (1993); Gantz et al. J. Biol. Chem. 268:15174-15179 (1993); Haskell-Leuvano et al., Biochem. Biophys. Res. Comm. 204:1137-1142 (1994); each of which is incorporated herein by reference). Vectors for construction of an hMCR-5 expressing cell line were obtained, and a line of HEK 293 cells expressing hMCR-5 was constructed (Gantz, supra, 1994). hMCR-5 has been described previously (Franberg et al., Biochem. Biophys. Res. Commun. 236:489-492 (1997); Chowdhary et al., Cytogenet. Cell Genet. 68:1-2 (1995); Chowdhary et al., Cytogenet. Cell Genet. 68:79-81 (1995), each of which is incorporated herein by reference). HEK 293 cells were maintained in DMEM, 25 mM HEPES, 2 mM glutamine, non-essential amino acids, vitamins, sodium pyruvate, 10% COSMIC CALF SERUM, 100 units/ml penicillin, 100 μg/ml streptomycin and 0.2 mg/ml G418 to maintain selection.
# Before assaying, cells were washed once with phosphate buffered saline (“PBS”; without Ca^2+ and Mg^2+), and stripped from the flasks using 0.25% trypsin and 0.5 mM EDTA. Cells were suspended in PBS, 10% COSMIC CALF SERUM and 1 mM CaCl2. Cell suspensions were prepared at a density of 2×10^4 cells/ml for HEK 293 cells expressing hMCR-3, hMCR-4 or hMCR-5, and 1×10^5 cells/ml for HEK 293 cells expressing hMCR-1. Suspensions were placed in a water bath and allowed to warm to 37° C. for 1 hr.
# Binding assays were performed in a total volume of 250 μl for HEK 293 cells. Control and test compounds were dissolved in distilled water. ^125I-HP 467 (50,000 dpm) (2000 Ci/mmol) (custom labeled by Amersham; Arlington Heights Ill.) was prepared in 50 mM Tris, pH 7.4, 2 mg/ml BSA, 10 mM CaCl2, 5 mM MgCl2, 2 mM EDTA and added to each tube. To each tube was added 4×10^3 HEK 293 cells expressing hMCR-3, hMCR-4 or hMCR-5, or 2×10^4 cells expressing hMCR-1. Assays were incubated for 2.5 hr at 37° C.
# GF/B filter plates were prepared by soaking for at least one hour in 5 mg/ml BSA and 10 mM CaCl2. Assays were filtered using a Brandel 96-well cell harvester (Brandel Inc.; Gaithersburg, Md.). The filters were washed four times with cold 50 mM Tris, pH 7.4, the filter plates were dehydrated for 2 hr and 35 μl of MICROSCINT was added to each well. Filter plates were counted using a Packard Topcount (Packard Instrument Co.) and data analyzed using GraphPad PRISM v2.0 (GraphPad Software Inc.; San Diego Calif.) and Microsoft EXCEL v5.0a (Microsoft Corp.; Redmond Wash.).
# To assay isoquinoline compounds, binding assays were performed in duplicate in a 96 well format. HP 467 was prepared in 50 mM Tris, pH 7.4, and ^125I-HP 467 was diluted to give 100,000 dpm per 50 μl. An isoquinoline compound, synthesized as described in Example I, was added to the well in 25 μl aliquots. A 25 μl aliquot of ^125I-HP 467 was added to each well. A 0.2 ml aliquot of suspended cells was added to each well to give the cell numbers indicate above, and the cells were incubated at 37° C. for 2.5 hr. Cells were harvested on GF/B filter plates as described above and counted.
# Some of the isoquinoline compounds were further tested for binding to MCR-3 and MCR-5.
# T1 sequence (P41968 whole entry): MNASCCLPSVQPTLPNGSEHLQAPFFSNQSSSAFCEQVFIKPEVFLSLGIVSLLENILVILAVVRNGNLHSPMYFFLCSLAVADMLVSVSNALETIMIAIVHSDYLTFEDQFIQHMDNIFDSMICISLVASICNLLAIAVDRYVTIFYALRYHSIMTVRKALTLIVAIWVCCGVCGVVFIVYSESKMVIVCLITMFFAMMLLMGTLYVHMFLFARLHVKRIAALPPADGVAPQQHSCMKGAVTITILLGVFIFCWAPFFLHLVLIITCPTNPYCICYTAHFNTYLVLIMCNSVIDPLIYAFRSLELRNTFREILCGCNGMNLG
SMILES,"% TNF-α Inhibtion, IP 30 (TNF-α)","% TNF-α Inhibtion, IP 300 (TNF-α)",IC50 (MCR-3),"% TNF-α Inhibtion, IP 100 (TNF-α)",decrease of TNF-α levels (TNF-α; LPS treated mice),"% TNF-α Inhibtion, Oral 300 (TNF-α)","% TNF-α Inhibtion, Oral 600 (TNF-α)","inhibiting TNF-α (TNF-α; LPS treated mice, both i.p. and oral administration)"
CNC(CN)CCCCN1Cc2ccccc2C(CN)C1c1ccc(Cl)cc1Cl (stereo not drawn) [TRG 2407-39],24 ± 17%,72 ± 5 %,0.28 µM,–,–,–,–,–
CNC(CN)CCCCN1Cc2ccccc2C(CNC2CCCCC2)C1c1ccc(-c2ccccc2)cc1 (stereo not drawn) [TRG 2405-241],26 ± 15%,45 ± 9%,7.45 µM,75 ± 3 %,particularly effective at decreasing TNF-α,38 ± 9 %,74 ± 8 %,–
CCNc1ccc(C2C(CNC3CCCCC3)c3ccccc3CN2CCCCC(CN)NC)cc1 (stereo not drawn) [TRG 2408-30],30 ± 14%,78 ± 3 %,40.4 µM,–,particularly effective at decreasing TNF-α,42 ± 14 %,74 ± 4 %,particularly effective at inhibiting TNF-α
CNC(CN)CN1Cc2ccccc2C(CNC2CCCCC2)C1c1ccc(O)cc1 (stereo not drawn) [TRG 2405-156],30 ± 13%,48 ± 16%,23.7 µM,12 ± 7%,–,–,–,–
CCNc1ccc(C2C(CNC3CCCCC3)c3ccccc3CN2CCCC(CN)NCCc2ccccc2)cc1 (stereo not drawn) [TRG 2408-62],71 ± 6 %,84 ± 8 %,5.71 µM,–,–,45 ± 11%,35 ± 5%,–
CCCCNc1ccc(C2C(CNCc3ccccc3O)c3ccccc3CN2CCCCC(CN)NC)cc1 (stereo not drawn) [TRG 2409-2],57 ± 6 %,65 ± 14%,–,–,–,58 ± 2 %,65 ± 2 %,–
CCNc1ccc(C2C(CNCc3ccccc3O)c3ccccc3CN2CCCC(CN)NCCc2ccccc2)cc1 (stereo not drawn) [TRG 2408-57],76 ± 8 %,86 ± 2 %,5.17 µM,83 ± 2 % and 87 ± 5 %,–,21 ± 11%,72 ± 7 %,–
CCNc1ccc(C2C(CNC3CCCCC3)c3ccccc3CN2CCCCC(CN)NC)cc1 (stereo not drawn) [TRG 2405-239],13 ± 8%,66 ± 9 %,39.8 µM,10 ± 6%,–,–,9 ± 14%,–
CNC(CN)CCCCN1Cc2ccccc2C(CNC2CCCCC2)C1c1ccc(Br)cc1 (stereo not drawn) [TRG 2405-242],21 ± 8%,68 ± 5 %,0.55 µM,60 ± 4 %,–,–,–,–
CNC(CN)CCCCN1Cc2ccccc2C(CNC2CCCCC2)C1c1ccc(Cl)cc1Cl (stereo not drawn) [TRG 2405-190],70 ± 11 %,83 ± 11 %,2.24 µM,−6 ± 7%,particularly effective at decreasing TNF-α,–,–,–
CCCOc1ccc(C2C(CNC3CCCCC3)c3ccccc3CN2CCCCC(CN)NC)cc1 (stereo not drawn) [TRG 2405-253],46 ± 8%,80 ± 7%,9.68 µM,–,particularly effective at decreasing TNF-α,–,–,–
CNC(CN)CCCCN1Cc2ccccc2C(CNC2CCCCC2)C1c1ccc(O)cc1 (stereo not drawn) [TRG 2405-246],27 ± 9%,80 ± 3 %,> 10 µM,–,–,–,−29 ± 31 %,–
CNC(CN)CCCCN1Cc2ccccc2C(CNC2CCCCC2)C1c1ccc(Oc2ccccc2)cc1 (stereo not drawn) [TRG 2405-252],49 ± 14 %,90 ± 2 %,6.49 µM,–,particularly effective at decreasing TNF-α,–,55 ± 13 %,–
CNC(CN)CCCCN1Cc2ccccc2C(CNC2CCCCC2)C1c1ccc(C(F)(F)F)cc1 (stereo not drawn) [TRG 2405-238],19 ± 7%,84 ± 18 %,> 10 µM,73 ± 1 %,–,–,6 ± 28%,–
CNC(CN)CCCCN1Cc2ccccc2C(CNC2CCCCC2)C1c1ccc2cccc(O)c2n1 (stereo not drawn) [TRG 2405-262],–,83 ± 3 %,> 10 µM,–,–,–,–,–
CCCCNc1ccc(C2C(CNC3CCCCC3)c3ccccc3CN2CCCCC(CN)NC)cc1 (stereo not drawn) [TRG 2409-14],31 ± 7%,76 ± 7 %,–,–,–,41 ± 9 %,67 ± 4 %,–
CNC(CN)CCCCN1Cc2ccccc2C(CNC2CCCCC2)C1c1ccc(N(C)C)cc1 (stereo not drawn) [TRG 2405-235],8 ± 7%,50 ± 9%,22.3 µM,39 ± 7%,–,–,–,–
